Experiments:
[1] = molecular target: T1, NF-κB p50 (Homo sapiens, UniProt P19838); assay: EMSA, inhibition of NF-κB/DNA interactions; assay type: binding; details: NF-κB p50 and 32P-labeled NF-κB oligonucleotide, MIC = minimal inhibitory concentration, 12.5 μM was the lowest concentration used
T1 construct: This assay was performed using purified NF-κB p50; purchased Promega
T1 sequence (P19838 1-433 limits assumed): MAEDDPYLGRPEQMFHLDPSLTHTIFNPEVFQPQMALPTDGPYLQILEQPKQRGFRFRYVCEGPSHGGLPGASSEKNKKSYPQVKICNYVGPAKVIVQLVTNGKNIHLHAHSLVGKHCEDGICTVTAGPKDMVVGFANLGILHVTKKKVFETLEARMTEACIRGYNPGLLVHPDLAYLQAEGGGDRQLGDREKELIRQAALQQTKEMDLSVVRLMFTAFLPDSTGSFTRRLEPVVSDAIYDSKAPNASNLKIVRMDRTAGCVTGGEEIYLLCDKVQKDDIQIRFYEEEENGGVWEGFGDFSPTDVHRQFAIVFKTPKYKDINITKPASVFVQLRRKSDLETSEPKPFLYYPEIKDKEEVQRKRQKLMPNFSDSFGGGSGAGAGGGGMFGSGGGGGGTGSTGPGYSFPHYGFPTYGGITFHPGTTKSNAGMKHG
Procedure: Electrophoretic mobility shift assays were performed using double-stranded ^32P-labeled oligonucleotides as target DNA. Binding reactions were set up as previously described in binding buffer (10% glycerol, 0.05% NP-40, 10 mM Tris-HCl pH 7.5, 50 mM NaCl, 0.5 mM DTT, and 10 mM MgCl2), in the presence of 0.1 μl/20 μl of NF-κB p50 (50 gsu) (Promega, Madison, WI, USA) and 0.25 ng of labeled oligonucleotide, in a total volume of 20 μl. After 30 min binding at room temperature, samples were electrophoresed at constant voltage (200 V for 30 min) through a low ionic strength (0.25 TBE buffer) (1 TBE/40.089 M Tris-borate, 0.002 M EDTA) on 6% polyacrylamide gels until the tracking dye (bromophenol blue) reached the bottom of a 16 cm slab. Gels were dried and exposed for autoradiography with intensifying screens at […]. In these experiments, DNA/protein complexes migrate through the gel with slower efficiency. In studies on the inhibitors of protein/DNA interactions, addition of the reagents was as follows: (i) nuclear factors, (ii) active principles, (iii) binding buffer, and (iv) labeled oligonucleotides mimicking the binding sites for TF to be modulated. The nucleotide sequence of double-stranded target DNA utilized in these experiments was 5′-CGC TGG GGA CTT TCC ACG G-3′ (sense strand, NF-κB). The synthetic oligonucleotides utilized in this study were purchased from Sigma Genosys (Sigma Genosys, Cambs, UK). To calculate the effective concentrations, three different autoradiograms obtained from different time exposures were scanned and compared to control EMSA performed without addition of angelicin analogues (two independent experiments were performed).
The effects of TMA derivatives on NF-κB- (nuclear factor-kappaB-) mediated induction of proinflammatory genes was verified first in vitro by electrophoretic mobility shift assay (EMSA) with the aim to verify and quantify the possible inhibition of NF-κB/DNA interactions. This assay was performed using purified NF-κB p50 and ^32P-labeled target NF-κB double-stranded oligonucleotide mimicking the NF-κB consensus sequence present within the IL-8 gene promoter.

[2] = test system: IB3-1 cells; assay: Cell proliferation assay on IB3-1 cells; assay type: cell-based; details: Homo sapiens, cell number/ml after 48 h of treatment
Procedure: Monolayers of 60% confluent IB3-1 cells were seeded in 24- or 12-well plates in LHC-8 medium in the presence of 5% FBS. After 24 h, TMA derivatives were added at serial dilutions and incubated for further 2-3 days. The effects of compounds (TMA derivatives) on the cell proliferation were analyzed as elsewhere described. A first analysis was performed with serial dilutions to obtain 50 μM, 200 μM, and 800 μM solutions. In order to determine IC50 values, the following concentrations were used 12.5, 25, 50, 100, 200, and 800 μM. In order to prepare the cells for counting, they were washed with PBS 1X and detached with trypsin/EDTA. Cells were suspended in physiological solution and counted with a Z2 Coulter Counter (Coulter Electronics, Hialeah, FL, USA). The cell number/ml was determined as IC50 after 2 days of culture, when untreated cells are in log phase of cell growth.
In order to obtain preliminary information on the biological properties of TMA derivatives, their effects on cell growth were examined on IB3-1 cell line, excellent biological model to study new potential anti-inflammatory molecules. The use of this cell line to study the expression of proinflammatory molecules under a variety of stimuli is well established. Monolayers of 60% confluent IB3-1 cells were seeded in 12-well plate in LHC-8 medium with 5% FBS. After 24 h, compounds were added at different concentrations and the cell number/ml was determined after further 48 h of culture.

[3] = test system: IL-8 mRNA; assay: RT-qPCR quantification of IL-8 mRNA in TNF-α-induced IB3-1 cells; assay type: cell-based, human; details: for inhibition at 1 µM / inhibition at 10 µM: Homo sapiens, IB3-1, 24 h, TNF-α-induced IB3-1 cells, RT-qPCR, na = not active at the used concentrations; for inhibition at 1 µM: 1 μM compound; for inhibition at 10 µM: 10 μM compound
Procedure: Monolayers of 60% confluent IB3-1 cells were seeded in 6- or 12-well plates in LHC-8 medium in the presence of 5% FBS. After 24 h, pure derivatives were added, 5 h before stimulation with TNF-α 80 ng/ml (ORF Genetics, Kopavogur, Iceland), and incubated for a further 24 h. Total RNA was extracted using TRIzol Reagent (Sigma-Aldrich, St. Louis, MO) following the manufacturer's instructions. Reverse transcription (RT) was performed using Reverse Transcription System kit (Promega, Madison, WI): 1 μg of total RNA was reverse transcribed in the presence of 5 mM MgCl2, 1X reverse transcription buffer (10 mM Tris-HCl, 50 mM KCl, and 0.1% Triton X-100), 1 mM each dNTPs, 20 U recombinant Rnasin Ribonuclease Inhibitor, 15 U AMV Reverse Transcriptase, and 0.5 μg oligo(dT)15 primers in a total volume of 20 μl for 10 min at 70°C and 60 min at 42°C. The resulting cDNA was quantified by relative quantitative real-time PCR (real-time qPCR). For real-time qPCR, 1 μl of cDNA was used for each SYBR Green reaction to quantify the relative expression of IL-8. Each 25 μl of total reaction volume contained 1 μl of cDNA, 10 pmol of primers, 1 iQTM SYBR Green Supermix (Bio-Rad Laboratories Inc., Hercules, CA). Real-time PCRs were performed for a total of 40 cycles (denaturation, 95°C for 10 s; annealing, 68°C for 30 s for IL-8, 65°C for 30 s for IL-6; elongation, 72°C for 60 s) using an iCycler IQ5 (Bio-Rad Laboratories Inc., Hercules, CA). Primer sequences were as follows: IL-8 forward: 5′-GTGCAGTTTTGCCAAGGAGT-3′ and IL-8 reverse: 5′-TTATGAATTCTCAGCCCTCTTCAAAAACTTCTC-3′. The relative proportions of each amplified template were determined utilizing the threshold cycle (CT) value for each performed PCR. The DDCt method was used to compare gene expression data. Each sample was quantified in duplicate. Changes in mRNA expression level were calculated following normalization with the GAPDH calibrator gene (housekeeping gene) and expressed as fold change over untreated samples [24]. Duplicates of negative controls (no template cDNA) were also run with every experimental plate to assess specificity and indicate potential contamination.
With the aim to study the effective anti-inflammatory properties of these new psoralen derivatives, we decided to further characterize the TMA derivatives for their potential activities on the expression of IL-8 gene, known to be involved in the lung inflammatory process in CF. […] More specifically, we were first interested in identifying compounds with low antiproliferative activity, but effective in downmodulating inflammatory gene expression without achieving a full suppression of these genes. We therefore employed IB3-1 cystic fibrosis cells, incubated for 5 h with two concentrations (1 μM and 10 μM) of selected compounds, and then treated with TNF-α ([…]). In the IB3-1 cystic fibrosis cellular model, NF-κB-dependent genes, including the gene encoding for the proinflammatory protein IL-8, generally are activated following infection with P. aeruginosa or treatment with TNF-α or IL-1β [26, 28, 31]. This feature is very important in the pathophysiology of CF, since several clinical complications are caused by exacerbation of this inflammatory response. After 1 day of incubation, cellular RNA was isolated for RT-qPCR analysis. All the TMA analogues found to be active in inhibiting NF-κB/DNA interactions were analyzed for their effects on inhibition of TNF-α-induced accumulation of IL-8 mRNA.

Compound	Inhibition of NF-κB/DNA complex (MIC) [1] [µM]	IC50 [2] [µM]	inhibition at 1 µM [3] [%]	inhibition at 10 µM [3] [%]	Inhibition of IL-8 expression (range given) ([3]; IB3-1 cells, low concentrations (1–10 μM), concentration not specified per value)
CC(=O)OCc1oc2c(C)cc3c(C)cc(=O)oc3c2c1C [Compound 2]	> 100	> 800			
COCc1oc2c(C)cc3c(C)cc(=O)oc3c2c1C [Compound 3]	> 100	> 800			
Cc1cc(=O)oc2c1cc(C)c1occc12 [Compound 4]	75	> 800			
Cc1cc(=O)oc2c1cc(C)c1occ(CBr)c12 [Compound 5]	12.5 to 25	486	33	31	
Cc1cc2ccc(=O)oc2c2c(C)coc12 [Compound 6]	> 100	454			
Cc1cc2c(C(F)(F)F)cc(=O)oc2c2c(C)coc12 [Compound 7]	> 100	> 800			
Cc1cc2c(CO)cc(=O)oc2c2c(C)coc12 [Compound 8]	25 to 50	398	51	52	52–83%
COCc1cc(=O)oc2c1cc(C)c1occ(C)c12 [Compound 9]	12.5	> 800			
Cc1cc2c(CBr)cc(=O)oc2c2c(C)coc12 [Compound 10]	< 12.5	< 50			
Cc1cc(=O)oc2c1ccc1occ(C)c12 [Compound 11]	> 100	182			
Cc1cc(=O)oc2c1cc(Cl)c1occ(C)c12 [Compound 12]	12.5	> 800	0		
Cc1cc(=O)oc2c1cc(Br)c1occ(C)c12 [Compound 13]	12.5	> 800			
Cc1cc(=O)oc2c1cc(C)c1scc(C)c12 [Compound 14]	> 100	> 800			
COCc1cc(=O)oc2c1cc(C)c1scc(C)c12 [Compound 15]	> 100	> 800			
